The values below are quoted from earlier work in patent US20030130179A1, “Methods for identifying therapeutic targets for treating infectious disease” (priority 2000, published 2003).

SMILES strings stand for the structures.

In data set [1] the target is thymidylate synthase (TS) (Homo sapiens, UniProt P04818).
Sequence of thymidylate synthase (TS) (P04818 2-313 limits assumed): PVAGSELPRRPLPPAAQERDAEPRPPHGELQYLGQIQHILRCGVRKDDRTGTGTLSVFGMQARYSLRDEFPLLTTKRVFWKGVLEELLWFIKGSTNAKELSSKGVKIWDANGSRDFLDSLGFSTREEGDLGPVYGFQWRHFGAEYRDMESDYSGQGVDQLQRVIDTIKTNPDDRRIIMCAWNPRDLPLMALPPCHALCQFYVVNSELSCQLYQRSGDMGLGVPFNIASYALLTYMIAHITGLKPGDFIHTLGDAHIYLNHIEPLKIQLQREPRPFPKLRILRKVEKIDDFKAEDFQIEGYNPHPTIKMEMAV

On to `O=c1[nH]c(=O)n([C@@H]2O[C@H](CO)[C@@H](O)[C@H]2O)cc1F` [5-fluorouridine], for which the cytotoxicity profile entry in data set [1] (TS inhibitor, relation to TS expression (Copur et al., 1995)) was “more toxic to the cells which express low amounts of the enzyme”.

Regarding `COC(=O)[C@H](C)NP(=O)(OC[C@H]1O[C@@H](n2cc(/C=C/Br)c(=O)[nH]c2=O)C[C@@H]1O)Oc1ccccc1` (stereo partly shown) [NB1011], the Cytotoxicity entry in data set [1] (model cell-based systems, relation to TS protein levels) is given as “proportional to TS protein levels”. Moreover, the “toxicity to the host” value with colon and breast cancer (animal models) is “little or no toxicity to the host”. Besides, in the data set on colon and breast cancer (colon and breast cancer animal models), the efficacy result was “demonstrated efficacy against colon and breast cancer”.
